From patent publication US12077555B2, “STAT degraders and uses thereof” (Kymera Therapeutics, Inc., priority 2019, dated 2024) come the findings set out here.

For this experiment, the target named is STAT3 (Homo sapiens, UniProt P40763). Nature of the experiment: Quantitation of STAT3 degradation in A549 cells by Western blot. Also on record: expressed in transfected cells; host or cells: A549. The class given is cell-based. The essentials:
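A549 cells treated 24 h at 37° C with compound at 30, 10, 3, 1, 0.3 μM or DMSO; RIPA lysates analysed by SDS-PAGE/Western blot for total STAT3, β-actin as loading control, LI-COR fluorescence read-out. DC50 derived by sigmoidal fit of dose-dependent degradation.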
For orientation: In western blotting, separated proteins are transferred to a membrane and probed.

[1] abbreviates: read-out: A549 DC50, 24 hours, tested up to 30 μM or 10 μM.
The mark [2] stands for this setting: 24 hours, tested up to 30 μM or 10 μM, read-out: A549 DC50.

Like-named read-outs stand apart in the source and are kept apart here. Bounds are passed on as bounds.

Chain of STAT3 (P40763 whole entry): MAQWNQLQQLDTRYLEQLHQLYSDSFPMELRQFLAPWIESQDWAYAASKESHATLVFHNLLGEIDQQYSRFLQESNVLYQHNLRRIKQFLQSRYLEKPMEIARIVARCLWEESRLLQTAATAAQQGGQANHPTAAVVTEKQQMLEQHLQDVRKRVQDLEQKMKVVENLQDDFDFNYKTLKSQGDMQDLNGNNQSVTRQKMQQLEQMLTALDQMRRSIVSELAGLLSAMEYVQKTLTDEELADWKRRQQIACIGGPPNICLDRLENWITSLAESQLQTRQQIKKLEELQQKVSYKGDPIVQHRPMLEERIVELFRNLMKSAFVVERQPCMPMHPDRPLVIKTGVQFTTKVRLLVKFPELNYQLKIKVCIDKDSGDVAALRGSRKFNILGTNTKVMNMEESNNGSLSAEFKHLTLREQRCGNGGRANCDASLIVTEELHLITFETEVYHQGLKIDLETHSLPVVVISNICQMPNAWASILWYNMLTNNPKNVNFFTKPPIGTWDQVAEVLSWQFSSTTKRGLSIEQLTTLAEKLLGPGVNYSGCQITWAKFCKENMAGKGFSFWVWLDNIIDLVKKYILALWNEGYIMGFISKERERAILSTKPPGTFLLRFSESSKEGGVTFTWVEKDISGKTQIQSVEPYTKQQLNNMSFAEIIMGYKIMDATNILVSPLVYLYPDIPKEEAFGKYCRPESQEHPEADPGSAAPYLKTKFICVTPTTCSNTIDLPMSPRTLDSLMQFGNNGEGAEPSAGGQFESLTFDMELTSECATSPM

In general, DC50 refers to the concentration at which degradation of the target reaches its halfway point. On to `C/C(=C\C(=O)N[C@H]1CCc2cccc3c2N(C1=O)[C@H](C(=O)N[C@@H](CCC(N)=O)[C@@H](C)OCc1ccc(CCCCOc2cc(-c4scnc4C)ccc2CNC(=O)[C@@H]2C[C@@H](O)CN2C(=O)[C@@H](NC(=O)C2(F)CC2)C(C)(C)C)cc1)C3)c1ccc(C(F)(F)P(=O)(OCOC(=O)C(C)(C)C)OCOC(=O)C(C)(C)C)cc1` [Compound I-26], for which the DC50 under setting [1] was > 10 µM.
Same read-out and setting: next, `Cc1ncsc1-c1ccc(CNC(=O)[C@@H]2C[C@@H](O)CN2C(=O)[C@@H](NC(=O)CCCCCc2ccc(CO[C@H](C)[C@H](CCC(N)=O)NC(=O)[C@@H]3Cc4cccc5c4N3C(=O)[C@@H](NC(=O)c3cc4cc(C(=O)P(=O)(O)O)ccc4[nH]3)CC5)cc2)C(C)(C)C)cc1` [Compound I-117, (2-(((3S,6S)-6-(((2R,3S)-6-amino-2-((4-(6-(((S)-1-((2S,4R)-4-hydroxy-2-((4-(4-methylthiazol-5-yl)benzyl)carbamoyl)pyrrolidin-1-yl)-3,3-dimethyl-1-oxobutan-2-yl)amino)-6-oxohexyl)benzyl)oxy)-6-oxohexan-3-yl)carbamoyl)-4-oxo-1,2,3,4,6,7-hexahydroazepino[3,2,1-hi]indol-3-yl)carbamoyl)-1H-indole-5-carbonyl)phosphonic acid]: < 30 µM; `C/C(=C\C(=O)N[C@H]1CCc2cccc3c2N(C1=O)[C@H](C(=O)N[C@@H](CCC(N)=O)[C@@H](C)OCc1ccc(CCCOCCOCCOCCCc2ccc4c(c2)n(C)c(=O)n4C2CCC(=O)NC2=O)cc1)C3)c1ccc(C(F)(F)P(=O)(OCOC(=O)C(C)(C)C)OCOC(=O)C(C)(C)C)cc1` (some centres unmarked) [Compound I-55]: > 30 µM; `C/C(=C\C(=O)N[C@H]1CN(C(=O)CCCCCC#Cc2cccc3c2CN(C2CCC(=O)NC2=O)C3=O)CC[C@H]2CC[C@@H](C(=O)N[C@@H](CCC(N)=O)C(=O)NC(c3ccccc3)c3ccccc3)N2C1=O)c1ccc(CP(=O)(O)O)cc1` (stereo partly drawn) [Compound I-89, diammonium [4-[(1E)-1-[[(5S,8S,10aR)-8[[(1S)-3-carbamoyl-1-(diphenylmethylcarbamoyl)propyl]carbamoyl]-3-[8-[2-(2,6-dioxopiperidin-3-yl)-1-oxo-3H-isoindol-4-yl]oct-7-ynoyl]-6-oxo-octahydropyrrolo[1,2-a][1,5]diazocin-5-yl]carbamoyl]prop-1-en-2-yl]phenyl]methylphosphonate]: < 30 µM.
In the case of `C/C(=C\C(=O)N[C@H]1CCc2cccc3c2N(C1=O)[C@H](C(=O)N[C@@H](CCC(N)=O)[C@@H](C)OCc1ccc(CCCOCCOCCOCCOCCOc2cc(-c4scnc4C)ccc2CNC(=O)[C@@H]2C[C@@H](O)CN2C(=O)[C@@H](NC(=O)C2(F)CC2)C(C)(C)C)cc1)C3)c1ccc(C(F)(F)P(=O)(OCOC(=O)C(C)(C)C)OCOC(=O)C(C)(C)C)cc1` [Compound I-16], under setting [2], the DC50 is > 30 µM.
As to `C/C(=C\C(=O)N[C@H]1CCc2cccc3c2N(C1=O)[C@H](C(=O)NC(CCC(N)=O)[C@@H](C)OCc1ccc(CCCOCC(=O)N[C@H](C(=O)N2C[C@H](O)CC2C(=O)NCc2ccc(-c4scnc4C)cc2)C(C)(C)C)cc1)C3)c1ccc(C(F)(F)P(=O)(OCOC(=O)C(C)(C)C)OCOC(=O)C(C)(C)C)cc1` (some centres unmarked) [Compound I-35], the 50% degradation concentration (DC50) under setting [1] is < 30 µM.
`C/C(=C\C(=O)N[C@H]1CCc2cccc3c2N(C1=O)[C@H](C(=O)NC(CCC(N)=O)[C@@H](C)OCc1ccc(CCCOCCOCCOCC(=O)N[C@H](C(=O)N2C[C@H](O)C[C@H]2C(=O)NCc2ccc(-c4scnc4C)cc2)C(C)(C)C)cc1)C3)c1ccc(C(F)(F)P(=O)(OCOC(=O)C(C)(C)C)OCOC(=O)C(C)(C)C)cc1` (some centres unmarked) [Compound I-33]: under setting [1], the DC50 is > 10 µM.
Same read-out and setting: next, `C/C(=C\C(=O)N[C@H]1CCc2cccc3c2N(C1=O)[C@H](C(=O)NC(CCC(N)=O)[C@@H](C)OCc1ccc(CCCOCCCCCCOCCCc2cccc4c2n(C)c(=O)n4C2CCC(=O)NC2=O)cc1)C3)c1ccc(C(F)(F)P(=O)(OCOC(=O)C(C)(C)C)OCOC(=O)C(C)(C)C)cc1` (some centres unmarked) [Compound I-44]: > 30 µM; `Cc1ncsc1-c1ccc(CNC(=O)[C@@H]2C[C@@H](O)CN2C(=O)[C@@H](NC(=O)CCC#Cc2ccc(CO[C@H](C)[C@H](CCC(N)=O)NC(=O)[C@@H]3Cc4cccc5c4N3C(=O)[C@@H](NC(=O)c3cc4cc(C(=O)P(=O)(O)O)ccc4[nH]3)CC5)cc2)C(C)(C)C)cc1` [Compound I-96, diammonium 2-[[(2S,11S)-2-[[(3S,4R)-1-carbamoyl-4-[[4-(4-[[(2S)-1-[(2S,4R)-4-hydroxy-2-([[4-(4-methyl-1,3-thiazol-5-yl)phenyl]methyl]carbamoyl)pyrrolidin-1-yl]-3,3-dimethyl-1-oxobutan-2-yl]carbamoyl]but-1-yn-1-yl)phenyl]methoxy]pentan-3-yl]carbamoyl]-12-oxo-1-azatricyclo[6.4.1.0^[4,13]]trideca-4(13),5,7-trien-11-yl]carbamoyl]-1H-indole-5-carbonylphosphonate]: > 30 µM; `C/C(=C\C(=O)N[C@H]1CCc2cccc3c2N(C1=O)[C@H](C(=O)N[C@@H](CCC(N)=O)[C@@H](C)OCc1ccc(CC(=O)N[C@H](C(=O)N2C[C@H](O)C[C@H]2C(=O)NCc2ccc(-c4scnc4C)cc2)C(C)(C)C)cc1)C3)c1ccc(C(F)(F)P(=O)(OCOC(=O)C(C)(C)C)OCOC(=O)C(C)(C)C)cc1` [Compound I-4]: > 30 µM.
As to `Cc1ncsc1-c1ccc(CNC(=O)[C@@H]2C[C@@H](O)CN2C(=O)[C@@H](NC(=O)CCCCc2ccc(CO[C@H](C)[C@H](CCC(N)=O)NC(=O)[C@@H]3Cc4cccc5c4N3C(=O)[C@@H](NC(=O)c3cc4cc(CP(=O)(O)O)ccc4[nH]3)CC5)cc2)C(C)(C)C)cc1` [Compound I-82, diammonium (2-[[(2S,11S)-2-[[(3S,4R)-1-carbamoyl-4-[[4-(4-[[(2S)-1-[(2S,4R)-4-hydroxy-2-([[4-(4-methyl-1,3-thiazol-5-yl)phenyl]methyl]carbamoyl)pyrrolidin-1-yl]-3,3-dimethyl-1-oxobutan-2-yl]carbamoyl]butyl)phenyl]methxy]opentan-3-yl]carbamoyl]-12-oxo-1-azatricyclo[6.4.1.0^[4,13]]trideca-4(13),5,7-trien-11-yl]carbamoyl]-1H-indo1-5-yl)methylphosphonate], the DC50 under setting [2] is > 30 µM.
`C/C(=C\C(=O)N[C@H]1CCc2cccc3c2N(C1=O)[C@H](C(=O)N[C@@H](CCC(N)=O)[C@@H](C)OCc1ccc(CCCCC(=O)N[C@H](C(=O)N2C[C@@H](O)C[C@H]2C(=O)NCc2ccc(-c4scnc4C)cc2)C(C)(C)C)cc1)C3)c1ccc(C(F)(F)P(=O)(OCOC(=O)C(C)(C)C)OCOC(=O)C(C)(C)C)cc1` [Compound I-2]: the DC50 under setting [1] is > 30 µM.
Still for that read-out and setting: for `Cc1ncsc1-c1ccc(CNC(=O)[C@@H]2C[C@@H](O)CN2C(=O)[C@@H](NC(=O)CCc2ccc3cc(CO[C@H](C)[C@H](CCC(N)=O)NC(=O)[C@@H]4Cc5cccc6c5N4C(=O)[C@@H](NC(=O)c4cc5cc(C(=O)P(=O)(O)O)ccc5[nH]4)CC6)ccc3c2)C(C)(C)C)cc1` [Compound I-87, diammonium 2-[[(2S,11S)-2-[[(3S,4R)-1-carbamoyl-4-[[6-(2-[[(2S)-1-[(2S,4R)-4-hydroxy-2-([[4-(4-methyl-1,3-thiazol-5-yl)phenyl]methyl]carbamoyl)pyrrolidin-1-yl]-3,3-dimethyl-1-oxobutan-2-yl]carbamoyl]ethyl)naphthalen-2-yl]methoxy]pentan-3-yl]carbamoyl]-12-oxo-1-azatricyclo[6.4.1.0^[4,13]]trideca-4(13),5,7-trien-11-yl]carbamoyl]-1H-indole-5-carbonylphosphonate] the value was < 30 µM.
On the same count and under the same terms, next, `C/C(=C\C(=O)N[C@H]1CCc2cccc3c2N(C1=O)[C@H](C(=O)N[C@@H](CCC(N)=O)[C@@H](C)OCc1ccc(CCCC(=O)N[C@H](C(=O)N2C[C@H](O)C[C@H]2C(=O)NCc2ccc(-c4scnc4C)cc2)C(C)(C)C)cc1)C3)c1ccc(C(F)(F)P(=O)(OCOC(=O)C(C)(C)C)OCOC(=O)C(C)(C)C)cc1` [Compound I-7]: < 30 µM; `C/C(=C\C(=O)N[C@H]1CCc2cccc3c2N(C1=O)[C@H](C(=O)N[C@@H](CCC(N)=O)[C@@H](C)OCc1ccc(CCCCC(=O)N[C@H](C(=O)N2C[C@H](O)C[C@H]2C(=O)NC2(c4ccc(-c5scnc5C)cc4)CC2)C(C)(C)C)cc1)C3)c1ccc(C(F)(F)P(=O)(O)O)cc1` [Compound I-92]: > 30 µM; `C/C(=C\C(=O)N[C@H]1CCc2cccc3c2N(C1=O)[C@H](C(=O)N[C@@H](CCC(N)=O)[C@@H](C)OCc1ccc(CCOCCCc2cccc4c2n(C)c(=O)n4C2CCC(=O)NC2=O)cc1)C3)c1ccc(C(F)(F)P(=O)(OCOC(=O)C(C)(C)C)OCOC(=O)C(C)(C)C)cc1` (stereo partly drawn) [Compound I-9, [([4-[(1E)-1-[[(2S,11S)-2-[[(3S,4R)-1-carbamoyl-4-[[4-(2-[3-[1-(2,6-dioxopiperidin-3-yl)-3-methyl-2-oxo-1,3-benzodiazol-4-yl]propoxy]ethyl)phenyl]methoxy]pentan-3-yl]carbamoyl]-12-oxo-1-azatricyclo[6.4.1.0^[4,13]]trideca-4(13),5,7-trien-11-yl]carbamoyl]prop-1-en-2-yl]phenyl]difluoromethyl([(2,2-dimethylpropanoyl)oxy]methoxy)phosphoryl)oxy]methyl 2,2-dimethylpropanoate]: > 30 µM.
On the same count and under the same terms, next, `C/C(=C\C(=O)N[C@H]1CCc2cccc3c2N(C1=O)[C@H](C(=O)N[C@@H](CCC(N)=O)[C@@H](C)OCc1ccc(CCCCCOCCCc2cccc4c2n(C)c(=O)n4C2CCC(=O)NC2=O)cc1)C3)c1ccc(C(F)(F)P(=O)(OCOC(=O)C(C)(C)C)OCOC(=O)C(C)(C)C)cc1` (stereo partly drawn) [Compound I-38, [([4-[(1E)-1-[[(2S,11S)-2-[[(3S,4R)-1-carbamoyl-4-[[4-(5-[3-[1-(2,6-dioxopiperidin-3-yl)-3-methyl-2-oxo-1,3-benzodiazol-4-yl]propoxy]pentyl)phenyl]methoxy]pentan-3-yl]carbamoyl]-12-oxo-1-azatricyclo[6.4.1.0^[4,13]]trideca-4(13),5,7-trien-11-yl]carbamoyl]prop-1-en-2-yl]phenyl]difluoromethyl([(2,2-dimethylpropanoyl)oxy]methoxy)phosphoryl)oxy]methyl 2,2-dimethylpropanoate]: > 10 µM.
